Data: US7598382B2, “Aryl substituted imidazoquinolines” (Coley Pharmaceutical Group, Inc., priority 2002, dated 2009)
Where a name gives a salt, the structure may show the parent alone.

melting point [°C] | SMILES
> 250 | CCCc1nc2c(N)nc3cc(-c4cccnc4)ccc3c2n1CC1CCN(S(C)(=O)=O)CC1 (as salt: HCl) (hydrate or solvate) [Example 411, 1-{[1-(Methanesulfonyl)piperidin-4-yl]methyl}-2-propyl-7-(pyridin-3-yl)-1H-imidazo[4,5-c]quinolin-4-amine]
145 to 146 | CCOCc1nc2c(N)nc3cc(-c4cccc(C(=O)N5CCCC5)c4)ccc3c2n1CCCOC (as salt: HCl) [Example 175, {3-[4-Amino-2-ethoxymethyl-1-(3-methoxypropyl)-1H-imidazo[4,5-c]quinolin-7-yl]phenyl}pyrrolidin-1-ylmethanone]
254 to 255 | CCOCc1nc2c(N)nc3cc(-c4cccnc4)ccc3c2n1CC1CCN(S(C)(=O)=O)CC1 (as salt: HCl) [Example 178, 2-Ethoxymethyl-1-{[1-(methanesulfonyl)piperidin-4-yl]methyl}-7-(pyridin-3-yl)-1H-imidazo[4,5-c]quinolin-4-amine]
> 250 | CCCc1nc2c(N)nc3cc(CCc4ccc5sc(C)nc5c4)ccc3c2n1CC(C)C (as salt: HCl) [Example 457, 7-[2-(2-Methylbenzothiazol-5-yl)ethyl]-1-(2-methylpropyl)-2-propyl-1H-imidazo[4,5-c]quinolin-4-amine]
> 250 | CCCc1nc2c(N)nc3cc(CCc4ccc(OC)cc4)ccc3c2n1CC(C)C (as salt: HCl) [Example 459, 7-[2-(4-Methoxyphenyl)ethyl]-1-(2-methylpropyl)-2-propyl-1H-imidazo[4,5-c]quinolin-4-amine]
> 250 | CCCc1nc2c(N)nc3cc(CCc4ccccc4OC)ccc3c2n1CC(C)C (as salt: HCl) [Example 460, 7-[2-(2-Methoxyphenyl)ethyl]-1-(2-methylpropyl)-2-propyl-1H-imidazo[4,5-c]quinolin-4-amine]
> 250 | CCOCc1nc2c(N)nc3cc(-c4cccnc4)ccc3c2n1CC1CCNCC1 (as salt: hydrochloride) [Example 177, 2-Ethoxymethyl-1-(piperidin-4-ylmethyl)-7-(pyridin-3-yl)-1H-imidazo[4,5-c]quinolin-4-amine trihydrochloride]
> 250 | CCc1nc2c(N)nc3cc(-c4cccnc4)ccc3c2n1CC1CCNCC1 (as salt: hydrochloride) [Example 405, 2-Ethyl-1-(piperidin-4-ylmethyl)-7-(pyridin-3-yl)-1H-imidazo[4,5-c]quinolin-4-amine trihydrochloride]
> 250 | CCCc1nc2c(N)nc3cc(-c4cccnc4)ccc3c2n1CC1CCNCC1 (as salt: hydrochloride) [Example 410, 1-(Piperidin-4-ylmethyl)-2-propyl-7-(pyridin-3-yl)-1H-imidazo[4,5-c]quinolin-4-amine trihydrochloride]
> 250 | CCOCc1nc2c(N)nc3cc(-c4cccnc4)ccc3c2n1CC1CCCCN1 (centres unmarked) (as salt: hydrochloride) [Example 491, 2-Ethoxymethyl-1-(piperidin-2-ylmethyl)-7-(pyridin-3-yl)-1H-imidazo[4,5-c]quinolin-4-amine trihydrochloride]
130 to 132 | CCOCc1nc2c(N)nc3cc(-c4cccnc4)ccc3c2n1CC1CCN(C(=O)C(C)C)CC1 (hydrate or solvate) [Example 179, 2-Ethoxymethyl-1-[(1-isobutyrylpiperidin-4-yl)methyl]-7-(pyridin-3-yl)-1H-imidazo[4,5-c]quinolin-4-amine]
224 to 225 | CCOCc1nc2c(N)nc3cc(-c4cccnc4)ccc3c2n1CC1CCN(C(=O)N2CCOCC2)CC1 (hydrate or solvate) [Example 180, 2-Ethoxymethyl-1-{[1-(morpholin-4-ylcarbonyl)piperidin-4-yl]methyl}-7-(pyridin-3-yl)-1H-imidazo[4,5-c]quinolin-4-amine]
72 to 75 | CCCCCCCCCCCCCCCC(=O)N1CCC(Cn2c(COCC)nc3c(N)nc4cc(-c5cccnc5)ccc4c32)CC1 (hydrate or solvate) [Example 181, 2-Ethoxymethyl-1-[(1-palmitoylpiperidin-4-yl)methyl]-7-(pyridin-3-yl)-1H-imidazo[4,5-c]quinolin-4-amine]
184 to 187 | COCCc1nc2c(N)nc3cc(-c4cccc(CO)c4)ccc3c2n1CCCN1CCCC1=O (hydrate or solvate) [Example 185, 1-{3-[4-Amino-7-(3-hydroxymethylphenyl)-2-(2-methoxyethyl)-1H-imidazo[4,5-c]quinolin-1-yl]propyl}pyrrolidin-2-one]
207 to 210 | COCCc1nc2c(N)nc3ccc(-c4ccccc4)cc3c2n1CCCN1CCCC1=O (hydrate or solvate) [Example 187, 1-{3-[4-Amino-2-(2-methoxyethyl)-8-phenyl-1H-imidazo[4,5-c]quinolin-1-yl]propyl}pyrrolidin-2-one]
164 to 167 | COCCc1nc2c(N)nc3ccc(-c4cccc(C(C)=O)c4)cc3c2n1CCCN1CCCC1=O (hydrate or solvate) [Example 189, 1-{3-[8-(3-Acetylphenyl)-4-amino-2-(2-methoxyethyl)-1H-imidazo[4,5-c]quinolin-1-yl]propyl}pyrrolidin-2-one]

melting point [°C] | SMILES
156 to 158 | CCOCc1nc2c(N)nc3cc(-c4ccccc4)ccc3c2n1CC1CCN(C(=O)C(C)C)CC1 (hydrate or solvate) [Example 194, 2-Ethoxymethyl-1-[(1-isobutyrylpiperidin-4-yl)methyl]-7-phenyl-1H-imidazo[4,5-c]quinolin-4-amine]
196 to 198 | CCOCc1nc2c(N)nc3cc(-c4cccnc4)ccc3c2n1CCCCNC(=O)C1CCCC1 (hydrate or solvate) [Example 374, N-{4-[4-Amino-2-ethoxymethyl-7-(pyridin-3-yl)-1H-imidazo[4,5-c]quinolin-1-yl]butyl}cyclopentanecarboxamide]
186 to 188 | CCOCc1nc2c(N)nc3cc(-c4cccnc4)ccc3c2n1CCCCNS(C)(=O)=O (hydrate or solvate) [Example 375, N-{4-[4-Amino-2-ethoxymethyl-7-(pyridin-3-yl)-1H-imidazo[4,5-c]quinolin-1-yl]butyl}methanesulfonamide]
144 to 146 | CCCC(=O)NCCCCn1c(CCC)nc2c(N)nc3cc(-c4cccnc4)ccc3c21 (hydrate or solvate) [Example 380, N-{4-[4-Amino-2-propyl-7-(pyridin-3-yl)-1H-imidazo[4,5-c]quinolin-1-yl]butyl}butyramide]
168 to 170 | CCCc1nc2c(N)nc3cc(-c4cccnc4)ccc3c2n1CCCCNC(=O)C(C)C (hydrate or solvate) [Example 381, N-{4-[4-Amino-2-propyl-7-(pyridin-3-yl)-1H-imidazo[4,5-c]quinolin-1-yl]butyl}-2-methylpropanamide]
180 to 182 | CCCc1nc2c(N)nc3cc(-c4cccnc4)ccc3c2n1CCCCNC(=O)C1CCCC1 (hydrate or solvate) [Example 382, N-{4-[4-Amino-2-propyl-7-(pyridin-3-yl)-1H-imidazo[4,5-c]quinolin-1-yl]butyl}cyclopentanecarboxamide]
184 to 185 | CCCNC(=O)NCCCCn1c(CCC)nc2c(N)nc3cc(-c4cccnc4)ccc3c21 (hydrate or solvate) [Example 384]
173 to 175 | CCCc1nc2c(N)nc3cc(-c4cccnc4)ccc3c2n1CCCCNC(=O)NC(C)C (hydrate or solvate) [Example 385]
176 to 177 | COCc1nc2c(N)nc3cc(-c4cccc(C(=O)N5CCOCC5)c4)ccc3c2n1CC(C)(C)O (hydrate or solvate) [Example 401, {3-[4-Amino-1-(2-hydroxy-2-methylpropyl)-2-methoxymethyl-1H-imidazo[4,5-c]quinolin-7-yl]phenyl}morpholin-4-ylmethanone]
224 to 225 | COCc1nc2c(N)nc3cc(-c4cncc(CO)c4)ccc3c2n1CC(C)(C)O (hydrate or solvate) [Example 402, 1-[4-Amino-7-(5-hydroxymethylpyridin-3-yl)-2-methoxymethyl-1H-imidazo[4,5-c]quinolin-1-yl]-2-methylpropan-2-ol]
228 to 229 | CCc1nc2c(N)nc3cc(-c4cccnc4)ccc3c2n1CC1CCN(S(C)(=O)=O)CC1 (hydrate or solvate) [Example 406, 2-Ethyl-1-{[1-(methanesulfonyl)piperidin-4-yl]methyl}-7-(pyridin-3-yl)-1H-imidazo[4,5-c]quinolin-4-amine]
189 to 191 | CCc1nc2c(N)nc3cc(-c4cccnc4)ccc3c2n1CC1CCN(C(=O)C(C)C)CC1 (hydrate or solvate) [Example 407, 1-{4-[4-Amino-2-ethyl-7-(pyridin-3-yl)-1H-imidazo[4,5-c]quinolin-1-ylmethyl]piperidin-1-yl}-2-methylpropan-1-one]
255 to 256 | CCc1nc2c(N)nc3cc(-c4cccnc4)ccc3c2n1CC1CCN(C(=O)NC(C)C)CC1 (hydrate or solvate) [Example 408, 4-[4-Amino-2-ethyl-7-(pyridin-3-yl)-1H-imidazo[4,5-c]quinolin-1-ylmethyl]piperidin-1-carboxylic acid isopropylamide]
205 to 207 | CCOCc1nc2c(N)nc3cc(-c4cccnc4)ccc3c2n1CCN1CCN(S(C)(=O)=O)CC1 (hydrate or solvate) [Example 415, 2-Ethoxymethyl-1-{2-[4-(methanesulfonyl)piperazin-1-yl]ethyl}-7-(pyridin-3-yl)-1H-imidazo[4,5-c]quinolin-4-amine]
190 to 192 | CCOCc1nc2c(N)nc3cc(-c4cccnc4)ccc3c2n1CCN1CCN(C(=O)C(C)C)CC1 (hydrate or solvate) [Example 416, 1-(4-{2-[4-Amino-2-ethoxymethyl-7-(pyridin-3-yl)-1H-imidazo[4,5-c]quinolin-1-yl]ethyl}piperazin-1-yl)-2-methylpropan-1-one]
130 to 131 | CCCc1nc2c(N)nc3cc(Cc4ccccc4)ccc3c2n1CC(C)(C)O (hydrate or solvate) [Example 432, 1-(4-Amino-7-benzyl-2-propyl-1H-imidazo[4,5-c]quinolin-1-yl)-2-methylpropan-2-ol]
